≈ marks a conversion by molar mass, not a printed value.
Columns and labels:
Type in all cases: physicochemical
[1] = Solubility measurement in various solvents at 23 ± 1° C. (Procedure 1)
Procedure: (§1) The solubility of the Compound 1 Form I was measured according to Procedure 1 for solubility in 23±1° C. (Table 13) and Procedure 2 for 50±1° C.

[2] = Solubility measurement in various solvents at 50 ± 1° C. (Procedure 2)
Procedure: as §1

[3] = Competitive slurry experiments (stability relationship of Compound 1 forms); conditions: in acetone/water (2:1) and acetone/water (1:1), 23-25° C.
Procedure: To evaluate the transformation of Compound 1 solid forms, competitive slurry experiments in production crystallization solvents at 23-25° C. were performed with a mixture of […] polymorphs (Form I through Form XI) according to the procedures in Table 25 (acetone/water 2:1) and Table 26 (acetone/water 1:1).

## C=CC(=O)NCc1cc2c(cn1)CN(c1c(F)c(OC)cc(OC)c1F)C(=O)C21CC1 [Form III]
[1]; 1,4-dioxane, 23 °C, organic solvent or mixture, thermodynamic from solid, 1,4-Dioxane, read-out: Solubility at 23 ± 1° C.
  solubility: 3020 µg/mL (≈ 7.03 mM)
[2]; 1,4-dioxane, 50 °C, organic solvent or mixture, thermodynamic from solid, 1,4-Dioxane, read-out: Solubility at 50 ± 1° C.
  solubility: 37800 µg/mL (≈ 88 mM)

## C=CC(=O)NCc1cc2c(cn1)CN(c1c(F)c(OC)cc(OC)c1F)C(=O)C21CC1 [Form IV]
[1]; toluene, 23 °C, organic solvent or mixture, thermodynamic from solid, Toluene, read-out: Solubility at 23 ± 1° C.
  solubility: 150 µg/mL (≈ 0.349 mM)
[2]; toluene, 50 °C, organic solvent or mixture, thermodynamic from solid, Toluene, read-out: Solubility at 50 ± 1° C.
  solubility: 170 µg/mL (≈ 0.396 mM)

## C=CC(=O)NCc1cc2c(cn1)CN(c1c(F)c(OC)cc(OC)c1F)C(=O)C21CC1 [Compound 1 Form I, N-((2′-(2,6-difluoro-3,5-dimethoxyphenyl)-3′-oxo-2′,3′-dihydro-1′H-spiro[cyclopropane-1,4′-[2,7]naphthyridine]-6′-yl)methyl)acrylamide]
[1]; 1-Propanol, 23 °C, organic solvent or mixture, thermodynamic from solid, 1-Propanol, read-out: Solubility at 23 ± 1° C.
  solubility: 1720 µg/mL (≈ 4.01 mM)
[1]; 2-methoxyethanol, 23 °C, organic solvent or mixture, thermodynamic from solid, 2-Methoxyethanol, read-out: Solubility at 23 ± 1° C.
  solubility: 20200 µg/mL (≈ 47 mM)
[1]; Acetone/water (1:1), 23 °C, aqueous with cosolvent or surfactant or cyclodextrin, thermodynamic from solid, Acetone/water (1:1), read-out: Solubility at 23 ± 1° C.
  solubility: 3970 µg/mL (≈ 9.24 mM)
[1]; Acetone/water (1:2), 23 °C, aqueous with cosolvent or surfactant or cyclodextrin, thermodynamic from solid, Acetone/water (1:2), read-out: Solubility at 23 ± 1° C.
  solubility: 860 µg/mL (≈ 2 mM)
[1]; Acetone/water (1:4), 23 °C, aqueous with cosolvent or surfactant or cyclodextrin, thermodynamic from solid, Acetone/water (1:4), read-out: Solubility at 23 ± 1° C.
  solubility: 170 µg/mL (≈ 0.396 mM)
[1]; Acetone/water (2:1), 23 °C, aqueous with cosolvent or surfactant or cyclodextrin, thermodynamic from solid, Acetone/water (2:1), read-out: Solubility at 23 ± 1° C.
  solubility: 12500 µg/mL (≈ 29 mM)
[1]; Acetone/water (4:1), 23 °C, aqueous with cosolvent or surfactant or cyclodextrin, thermodynamic from solid, Acetone/water (4:1), read-out: Solubility at 23 ± 1° C.
  solubility: 19400 µg/mL (≈ 45.2 mM)
[1]; DCM/MeOH (1:1), 23 °C, organic solvent or mixture, thermodynamic from solid, DCM/MeOH (1:1), read-out: Solubility at 23 ± 1° C.
  solubility: > 50000 µg/mL
[1]; DMF, 23 °C, organic solvent or mixture, thermodynamic from solid, DMF, read-out: Solubility at 23 ± 1° C.
  solubility: > 50000 µg/mL
[1]; DMSO, 23 °C, organic solvent or mixture, thermodynamic from solid, DMSO, read-out: Solubility at 23 ± 1° C.
  solubility: > 50000 µg/mL
[1]; DMSO, DMF, DCM/MeOH (1:1), THF/water (4:1), 23 °C, organic solvent or mixture, thermodynamic from solid, at 23° C. in DMSO, DMF, DCM/MeOH (1:1), and THF/water (4:1), read-out: Solubility (completely soluble)
  solubility: > 50000 µg/mL
[1]; Dichloromethane, 23 °C, organic solvent or mixture, thermodynamic from solid, Dichloromethane, read-out: Solubility at 23 ± 1° C.
  solubility: 12400 µg/mL (≈ 29 mM)
[1]; EtOAc, 23 °C, organic solvent or mixture, thermodynamic from solid, EtOAc, read-out: Solubility at 23 ± 1° C.
  solubility: 890 µg/mL (≈ 2.07 mM)
[1]; EtOH, 23 °C, organic solvent or mixture, thermodynamic from solid, EtOH, read-out: Solubility at 23 ± 1° C.
  solubility: 2010 µg/mL (≈ 4.68 mM)
[1]; IPA, 23 °C, organic solvent or mixture, thermodynamic from solid, IPA, read-out: Solubility at 23 ± 1° C.
  solubility: 900 µg/mL (≈ 2.1 mM)
[1]; IPAc, 23 °C, organic solvent or mixture, thermodynamic from solid, IPAc, read-out: Solubility at 23 ± 1° C.
  solubility: 440 µg/mL (≈ 1.02 mM)
[1]; MEK, 23 °C, organic solvent or mixture, thermodynamic from solid, MEK, read-out: Solubility at 23 ± 1° C.
  solubility: 3580 µg/mL (≈ 8.34 mM)
[1]; MIBK, 23 °C, organic solvent or mixture, thermodynamic from solid, MIBK, read-out: Solubility at 23 ± 1° C.
  solubility: 910 µg/mL (≈ 2.12 mM)
[1]; MeCN, 23 °C, organic solvent or mixture, thermodynamic from solid, MeCN, read-out: Solubility at 23 ± 1° C.
  solubility: 4590 µg/mL (≈ 10.7 mM)
[1]; THF, 23 °C, organic solvent or mixture, thermodynamic from solid, THF, read-out: Solubility at 23 ± 1° C.
  solubility: 3770 µg/mL (≈ 8.78 mM)
[1]; THF/water (4:1), 23 °C, organic solvent or mixture, thermodynamic from solid, THF/water (4:1), read-out: Solubility at 23 ± 1° C.
  solubility: > 50000 µg/mL
[1]; acetone, 23 °C, organic solvent or mixture, thermodynamic from solid, Acetone, read-out: Solubility at 23 ± 1° C.
  solubility: 5100 µg/mL (≈ 11.9 mM)
[1]; at 23° C. in MeCN, 1,4-dioxane, MeOH, 2-methoxyethanol, THF, acetone, n-BuOH, EtOH, ethyl formate, 1-propanol, MEK, acetone water (2:1), acetone water (1:1), chloroform and dichloromethane
  Solubility (slightly soluble): 1000 to 50000 µg/mL
[1]; ethyl formate, 23 °C, organic solvent or mixture, thermodynamic from solid, Ethyl formate, read-out: Solubility at 23 ± 1° C.
  solubility: 2200 µg/mL (≈ 5.12 mM)
[1]; isobutyl acetate, 23 °C, organic solvent or mixture, thermodynamic from solid, Isobutyl acetate, read-out: Solubility at 23 ± 1° C.
  solubility: 280 µg/mL (≈ 0.652 mM)
[1]; methanol, 23 °C, organic solvent or mixture, thermodynamic from solid, Methanol, read-out: Solubility at 23 ± 1° C.
  solubility: 5350 µg/mL (≈ 12.5 mM)
[1]; n-BuOH, 23 °C, organic solvent or mixture, thermodynamic from solid, n-BuOH, read-out: Solubility at 23 ± 1° C.
  solubility: 1180 µg/mL (≈ 2.75 mM)
[1]; organic solvent or mixture, thermodynamic from solid, at 23° C. in heptane, hexane, toluene, MTBE, isobutyl acetate, IPAc, water, acetone water (1:4), MIBK, EtOAc, IPA, and acetone water (1:2), read-out: Solubility (insoluble)
  solubility: < 1000 µg/mL
[1]; water, 23 °C, water, thermodynamic from solid, Water, read-out: Solubility at 23 ± 1° C.
  solubility: 10 µg/mL (≈ 0.0233 mM)
[2]; 1-Propanol, 50 °C, organic solvent or mixture, thermodynamic from solid, 1-Propanol, read-out: Solubility at 50 ± 1° C.
  solubility: 2890 µg/mL (≈ 6.73 mM)
[2]; 2-methoxyethanol, 50 °C, organic solvent or mixture, thermodynamic from solid, 2-Methoxyethanol, read-out: Solubility at 50 ± 1° C.
  solubility: 36600 µg/mL (≈ 85.3 mM)
[2]; 50 °C, organic solvent or mixture, thermodynamic from solid, at 50° C. in DMSO, DMF, DCM/MeOH (1:1), THF/water (4:1), acetone/water (4:1) and chloroform, read-out: Solubility (completely soluble)
  solubility: > 50000 µg/mL
[2]; 50 °C, organic solvent or mixture, thermodynamic from solid, at 50° C. in heptane, hexane, toluene, MTBE, isobutyl acetate, IPAc, water, and acetone water (1:4), read-out: Solubility (insoluble)
  solubility: < 1000 µg/mL
[2]; Acetone/water (1:1), 50 °C, aqueous with cosolvent or surfactant or cyclodextrin, thermodynamic from solid, Acetone/water (1:1), read-out: Solubility at 50 ± 1° C.
  solubility: 12600 µg/mL (≈ 29.4 mM)
[2]; Acetone/water (1:2), 50 °C, aqueous with cosolvent or surfactant or cyclodextrin, thermodynamic from solid, Acetone/water (1:2), read-out: Solubility at 50 ± 1° C.
  solubility: 3530 µg/mL (≈ 8.22 mM)
[2]; Acetone/water (1:4), 50 °C, aqueous with cosolvent or surfactant or cyclodextrin, thermodynamic from solid, Acetone/water (1:4), read-out: Solubility at 50 ± 1° C.
  solubility: 570 µg/mL (≈ 1.33 mM)
[2]; Acetone/water (2:1), 50 °C, aqueous with cosolvent or surfactant or cyclodextrin, thermodynamic from solid, Acetone/water (2:1), read-out: Solubility at 50 ± 1° C.
  solubility: 47000 µg/mL (≈ 109 mM)
[2]; Acetone/water (4:1), 50 °C, aqueous with cosolvent or surfactant or cyclodextrin, thermodynamic from solid, Acetone/water (4:1), read-out: Solubility at 50 ± 1° C.
  solubility: > 50000 µg/mL
[2]; DCM/MeOH (1:1), 50 °C, organic solvent or mixture, thermodynamic from solid, DCM/MeOH (1:1), read-out: Solubility at 50 ± 1° C.
  solubility: > 50000 µg/mL
[2]; DMF, 50 °C, organic solvent or mixture, thermodynamic from solid, DMF, read-out: Solubility at 50 ± 1° C.
  solubility: > 50000 µg/mL
[2]; DMSO, 50 °C, organic solvent or mixture, thermodynamic from solid, DMSO, read-out: Solubility at 50 ± 1° C.
  solubility: > 50000 µg/mL
[2]; EtOAc, 50 °C, organic solvent or mixture, thermodynamic from solid, EtOAc, read-out: Solubility at 50 ± 1° C.
  solubility: 2710 µg/mL (≈ 6.31 mM)
[2]; EtOH, 50 °C, organic solvent or mixture, thermodynamic from solid, EtOH, read-out: Solubility at 50 ± 1° C.
  solubility: 8560 µg/mL (≈ 19.9 mM)
[2]; IPA, 50 °C, organic solvent or mixture, thermodynamic from solid, IPA, read-out: Solubility at 50 ± 1° C.
  solubility: 2220 µg/mL (≈ 5.17 mM)
[2]; IPAc, 50 °C, organic solvent or mixture, thermodynamic from solid, IPAc, read-out: Solubility at 50 ± 1° C.
  solubility: 980 µg/mL (≈ 2.28 mM)
[2]; MEK, 50 °C, organic solvent or mixture, thermodynamic from solid, MEK, read-out: Solubility at 50 ± 1° C.
  solubility: 3730 µg/mL (≈ 8.69 mM)
[2]; MIBK, 50 °C, organic solvent or mixture, thermodynamic from solid, MIBK, read-out: Solubility at 50 ± 1° C.
  solubility: 2950 µg/mL (≈ 6.87 mM)
[2]; MeCN, 50 °C, organic solvent or mixture, thermodynamic from solid, MeCN, read-out: Solubility at 50 ± 1° C.
  solubility: 11600 µg/mL (≈ 26.9 mM)
[2]; THF, 50 °C, organic solvent or mixture, thermodynamic from solid, THF, read-out: Solubility at 50 ± 1° C.
  solubility: 11300 µg/mL (≈ 26.3 mM)
[2]; THF/water (4:1), 50 °C, organic solvent or mixture, thermodynamic from solid, THF/water (4:1), read-out: Solubility at 50 ± 1° C.
  solubility: > 50000 µg/mL
[2]; acetone, 50 °C, organic solvent or mixture, thermodynamic from solid, Acetone, read-out: Solubility at 50 ± 1° C.
  solubility: 15500 µg/mL (≈ 36.1 mM)
[2]; ethyl formate, 50 °C, organic solvent or mixture, thermodynamic from solid, Ethyl formate, read-out: Solubility at 50 ± 1° C.
  solubility: 6580 µg/mL (≈ 15.3 mM)
[2]; hexane, 50 °C, organic solvent or mixture, thermodynamic from solid, Hexane, read-out: Solubility at 50 ± 1° C.
  solubility: 60 µg/mL (≈ 0.14 mM)
[2]; isobutyl acetate, 50 °C, organic solvent or mixture, thermodynamic from solid, Isobutyl acetate, read-out: Solubility at 50 ± 1° C.
  solubility: 750 µg/mL (≈ 1.75 mM)
[2]; methanol, 50 °C, organic solvent or mixture, thermodynamic from solid, Methanol, read-out: Solubility at 50 ± 1° C.
  solubility: 17900 µg/mL (≈ 41.6 mM)
[2]; n-BuOH, 50 °C, organic solvent or mixture, thermodynamic from solid, n-BuOH, read-out: Solubility at 50 ± 1° C.
  solubility: 6200 µg/mL (≈ 14.4 mM)
[2]; organic solvent or mixture, thermodynamic from solid, at 50° C. in MeCN, 1,4-dioxane, MeOH, 2-methoxyethanol, THF, acetone, n-BuOH, EtOH, ethyl formate, 1-propanol, MEK, acetone water (2:1), acetone water (1:1), MIBK, EtOAc, IPA, and acetone water (1:2), read-out: Solubility (slightly soluble)
  solubility: 1000 to 50000 µg/mL (≈ 2.33 to 116 mM)
[2]; water, 50 °C, water, thermodynamic from solid, Water, read-out: Solubility at 50 ± 1° C.
  solubility: 10 µg/mL (≈ 0.0233 mM)
[3]
  Relative stability of polymorphic forms: most stable polymorphic form

## C=CC(=O)NCc1cc2c(cn1)CN(c1c(F)c(OC)cc(OC)c1F)C(=O)C21CC1 [Form II]
[1]; Chloroform, 23 °C, organic solvent or mixture, thermodynamic from solid, Chloroform, read-out: Solubility at 23 ± 1° C.
  solubility: 26700 µg/mL (≈ 62.1 mM)
[2]; Chloroform, 50 °C, organic solvent or mixture, thermodynamic from solid, Chloroform, read-out: Solubility at 50 ± 1° C.
  solubility: > 50000 µg/mL
